US20060211736A1, “GLUTARIMIDE-CONTAINING POLYKETIDE ANALOGS AND METHODS THEREOF” (Wisconsin Alumni Research Foundation, priority 2005, published 2006)

Experiments:
HCT-116 cells = conditions: same assay conditions for both substances; cited from earlier work
[1] = stability in organic solvents and under fermentation condition (HPLC, 1H NMR); assay type: physicochemical; conditions: in CHCl3, DMSO, MeOH, and MeOH-H2O at 25° C. for 90 days
Protocol: (§1) To verify the identity of the shunt metabolites, purified 4 (30 mg) was incubated in H2O-DMSO (9:1), and the resultant products were isolated and subjected to spectroscopic analysis.
Seed medium (50 mL) in a 250-mL flask was inoculated with spores of S. platensis and incubated on a rotary shaker at 250 rpm and 28° C. for 30 hr. The resultant seed culture (25 mL) was then inoculated into production medium (600 mL containing 70 g/L XAD-16 resins) in a 2-L flask, which was incubated on a rotary shaker at 250 rpm and 28° C. for 2 days. The combined production culture broth (7 L) was filtered through gauze sponges to capture the XAD-16 resins. The resins were washed with Milli-Q H2O, dried at room temperature, and eluted with anhydrous ethanol. The ethanol extract was evaporated under reduced pressure to yield an oily residue. The residue was first analyzed by HPLC-UV (PDA) and LC-ESI-MS to confirm the presence of the various congeners of 110. Although they can survive during fermentation and be stabilized in H2O upon absorption to resins, 110 and its congeners 112-119 undergo rapid rearrangement in aqueous solution. They are stable in most organic solvents such as CHCl3, EtOAc, hexane, and absolute ethanol at room temperature. Consequently, isolation of these metabolites was performed mainly by repeated silica gel flash column chromatography using two different solvent systems (CHCl3/MeOH and EtOAc/hexane).

[2] = tested on: K-ras transformed NIH/3T3 mouse fibroblasts; conditions: 0.4 ∝g/ml; cited from earlier work
experimental tumors = conditions: efficacy comparable to or better than MTM C; cited from earlier work
[3] = stability in water / H2O-mediated rearrangement (HPLC); assay type: physicochemical
Protocol: as §1
Large-scale Conversion of 4 to 1, 2, 3 and 5 in H2O. The purity of compound 4 was first analyzed by HPLC showing a single peak (purity >98%) and then confirmed by ^1H NMR spectrum (in CDCl3) showing no detectable contaminant. A solution of 4 (30 mg in 6 ml of DMSO) was then added to 55 ml Milli-Q H2O, and the resultant mixture was incubated at 37° C. for 2 hours. The reaction mixture was evaporated under high vacuo. The residue was subjected to silica gel flash column chromatography eluted with CHCl3-MeOH (from 10:0 to 9.4:0.6) to yield pure 1 (8 mg), 3 (9 mg), and a mixture of 2 and 5. The latter was further resolved by semi-preparative to afford pure 2 (6 mg) and 5 (4 mg). The ESI−MS, ^1H NMR and optical rotation data of compounds 1, 2, 3, and 5 were identical to those obtained from the corresponding compounds isolated from fermentation (the ^13C NMR spectrum of 1 was also measured, which is identical to that of 1 obtained from fermentation).
H2O-mediated rearrangement of 112-114 and 117-119. […]
Regioselective 1,4-reduction to access the reduced NK30424 scaffold. […] The reactions for 203, 209, and 210 were complete in 2, 8, and 12 hrs, respectively, as monitored by HPLC (yields>80%). […]

In the case of `CO[C@@]12[C@H](COC(N)=O)C3=C(C(=O)C(C)=C(N)C3=O)N1C[C@@H]1N[C@@H]12` [MTM C], the “IC50 value with HCT-116 cells” value (HCT-116 cells) is given as 0.8 mg/L.

In the case of `CO[C@@H](/C=C/CC/C=C/C(=O)O)[C@@H](O)[C@H](C)/C=C(\C)[C@H](O)[C@H](C)C(=O)CCCC1CC(=O)NC(=O)C1` [Compound 2, Dorrigocin A], the “change of solutions upon HPLC and 1H NMR analyses” value (“change” for short) [1] is given as “no detectable change” and the “reduction of the number of foci” value [2] is given as 74%.

In the case of `C/C(=C\[C@H](C)C(=O)C[C@H](O)CC1CC(=O)NC(=O)C1)[C@@H]1OC(=O)/C=C/CC/C=C/C=C\[C@@H]1C` [Compound 104, lactimidomycin], the “IC50 value with HCT-116 cells” value (HCT-116 cells) is listed as 0.0014 mg/L and the “survival time of tumor-bearing mice” value (experimental tumors) is listed as “prolonged the survival time”.

With `CO[C@@H](/C=C/CC/C=C/C(=O)O)[C@@H](O)[C@H](C)[C@@H](O)/C(C)=C/[C@H](C)C(=O)CCCC1CC(=O)NC(=O)C1` [Compound 3, Dorrigocin B] the “change” value [1] was “no detectable change”.

With `CO[C@@H](/C=C/CC/C=C/C(=O)O)[C@@H](O)[C@H](C)/C=C(\C)[C@@H](O)[C@H](C)C(=O)CCCC1CC(=O)NC(=O)C1` [Compound 5, 13-epi-Dorrigocin A] the “change” value [1] was “no detectable change”.

For `CO[C@H]1/C=C/CC/C=C/C(=O)O[C@H]([C@H](C)C(=O)CCCC2CC(=O)NC(=O)C2)/C(C)=C\[C@@H](C)[C@@H]1O` [Compound 1, Migrastatin], the “change” value [1] was “no detectable change”.

In the case of `CO[C@H]1/C=C/CC/C=C/C(=O)O[C@@H](/C(C)=C/[C@H](C)C(=O)CCCC2CC(=O)NC(=O)C2)[C@@H](C)[C@@H]1O` [Compound 4, iso-Migrastatin], the “stability in aqueous solution (H2O-mediated rearrangement)” value [3] is reported as “rapid conversion”.
